{"source": "patent US20230391826A1", "about": "“COMPOSITIONS AND METHODS FOR TREATING DISEASES” (Sanford Burnham Prebys Medical Discovery Institute, priority 2020, published 2023)", "key": {"[1]": {"biological_target": "EphA2 (Homo sapiens, UniProt P29317)", "sequence (P29317 24-976)": "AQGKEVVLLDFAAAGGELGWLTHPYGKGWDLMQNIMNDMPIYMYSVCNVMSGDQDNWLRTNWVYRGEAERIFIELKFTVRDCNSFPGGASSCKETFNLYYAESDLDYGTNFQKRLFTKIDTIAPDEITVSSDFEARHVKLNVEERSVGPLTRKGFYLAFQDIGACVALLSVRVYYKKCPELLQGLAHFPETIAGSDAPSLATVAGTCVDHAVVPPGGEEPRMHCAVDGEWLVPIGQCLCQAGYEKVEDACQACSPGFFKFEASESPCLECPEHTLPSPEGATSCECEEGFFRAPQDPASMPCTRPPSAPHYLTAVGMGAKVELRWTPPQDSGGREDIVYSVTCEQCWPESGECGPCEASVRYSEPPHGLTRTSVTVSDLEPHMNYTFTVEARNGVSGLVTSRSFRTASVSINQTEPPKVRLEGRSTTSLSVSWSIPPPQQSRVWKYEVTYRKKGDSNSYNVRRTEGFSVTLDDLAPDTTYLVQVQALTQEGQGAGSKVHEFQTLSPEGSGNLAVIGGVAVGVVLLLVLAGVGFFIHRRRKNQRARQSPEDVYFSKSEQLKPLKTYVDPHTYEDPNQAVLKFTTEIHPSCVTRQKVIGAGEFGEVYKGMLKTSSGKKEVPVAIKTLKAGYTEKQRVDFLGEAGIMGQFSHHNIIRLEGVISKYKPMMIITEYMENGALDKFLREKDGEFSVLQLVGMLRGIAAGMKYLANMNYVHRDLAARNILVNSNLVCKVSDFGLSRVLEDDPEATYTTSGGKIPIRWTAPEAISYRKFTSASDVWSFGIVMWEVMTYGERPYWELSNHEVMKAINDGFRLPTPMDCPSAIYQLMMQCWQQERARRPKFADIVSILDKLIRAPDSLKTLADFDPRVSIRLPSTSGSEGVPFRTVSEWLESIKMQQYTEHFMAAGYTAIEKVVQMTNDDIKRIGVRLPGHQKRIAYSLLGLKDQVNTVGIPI", "experiment": "Quantitative FRET of EphA2 oligomerization in transiently transfected HEK293 cells", "format": "cell-based", "parameters": "expressed in transfected cells; host or cells: HEK293 (HEK293T), transient transfection", "source_text": "FIG. 4A-4E illustrates an example where dimers with different configurations induce EphA2 oligomerization and patching on the cell surface. (FIG. 4A-4D) Oligomerization curves comparing EphA2 WT and the G131Y and L223R/L254R/[…] interface mutants transiently expressed in HEK293 cells and treated with saturating concentrations of C-terminally linked dimer (2) or N-terminally linked dimer (5). The curves were obtained by fitting quantitative FRET data to monomer-oligomer models. […] Curves for higher order oligomerization are steeper than dimerization curves. (FIG. 4E) Two-photon integrated fluorescence images of HEK293 cells expressing EphA2-EYFP and EphA2-mTURQ and under hypo-osmotic conditions. The plasma membrane regions in the rectangular yellow outlines are enlarged in the insets at the bottom of each panel. […]\n(§1) To examine the effects of dimeric peptide ligands on EphA2 oligomerization (including dimerization and higher order clustering), quantitative FRET experiments were performed in live cells. […] FRET is then measured in hundreds of individual cells with different EphA2 expression levels (FIG. 12), and the data are combined to yield average oligomeric fractions at different EphA2 concentrations (FIG. 4A-4D). […]\nTo obtain the data points for oligomerization curves (FIG. 12), the concentration of EphA2 in each small region of plasma membrane in which FRET efficiency was measured. […]"}, "[2]": {"biological_target": "T1, EphA2 LBD (Homo sapiens, UniProt P29317)", "T1 construct": "made in house; host or cells: E. coli Origami 2(DE3)", "T1 sequence (P29317 28-200)": "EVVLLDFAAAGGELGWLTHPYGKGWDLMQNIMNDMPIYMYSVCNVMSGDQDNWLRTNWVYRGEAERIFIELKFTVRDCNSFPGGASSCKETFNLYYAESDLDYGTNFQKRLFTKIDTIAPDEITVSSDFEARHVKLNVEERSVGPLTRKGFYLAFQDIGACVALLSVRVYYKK", "experiment": "Isothermal titration calorimetry (ITC) with soluble EphA2 LBD", "format": "binding", "protocol": "(FIG. 10A-10E) The EphA2 LBD was titrated at 200-250 μM into 10-12.5 μM of the indicated peptide.\nFor ITC, all peptides are dissolved in DMSO and both the EphA2 LBD and the peptides are diluted to obtain a final buffer containing 9.5 mM HEPES, pH 7.9, 95 mM NaCl, and 5% DMSO. The experiments are carried out at 296 K (23° C.) using an ITC200 calorimeter (Microcal). Two-microliter aliquots of a peptide solution are injected into the cell containing 205 μL EphA2 LBD. 200-400 μM peptides are titrated into 20-40 μM EphA2 LBD. Experimental data are analyzed using the Origin software package (Microcal). The integrated values for the reaction heats are normalized to the amount of injected peptide after blank subtraction."}, "[3]": {"biological_target": "T2, EphA2 (Homo sapiens, UniProt P29317, L223R/L254R/V255R)", "T2 construct": "expressed in transfected cells; host or cells: HEK293 (HEK293T), transient transfection", "T2 sequence (P29317 24-976 L223R/L254R/V255R)": "as the sequence (P29317 24-976) above, with L200R, L231R, V232R counted along it", "experiment": "Quantitative FRET of EphA2 oligomerization in transiently transfected HEK293 cells", "format": "cell-based", "conditions": "swollen HEK293 cells", "source_text": "(§2) FIG. 4A-4E illustrates an example where dimers with different configurations induce EphA2 oligomerization and patching on the cell surface. (FIG. 4A-4D) Oligomerization curves comparing EphA2 WT and the G131Y and L223R/L254R/[…] interface mutants transiently expressed in HEK293 cells and treated with saturating concentrations of C-terminally linked dimer (2) or N-terminally linked dimer (5). The curves were obtained by fitting quantitative FRET data to monomer-oligomer models. […] Curves for higher order oligomerization are steeper than dimerization curves. (FIG. 4E) Two-photon integrated fluorescence images of HEK293 cells expressing EphA2-EYFP and EphA2-mTURQ and under hypo-osmotic conditions. The plasma membrane regions in the rectangular yellow outlines are enlarged in the insets at the bottom of each panel. The dimeric peptides induce patching of EphA2 WT on the plasma membrane and dimer (5) also induces patching of the EphA2 L223R/L254R/V255R mutant, while in the other cases the EphA2 interface mutations disrupt patching. The scale bar represents 10 μm for the main panels and 4 μm for the insets. # indicates the presence of EphA2 patches in the plasma membrane.\n(§3) FIG. 12 illustrates an example of FRET efficiencies versus total receptor concentrations. […]\nas §1\n(§4) To obtain the data points for oligomerization curves (FIG. 12), the concentration of EphA2 in each small region of plasma membrane in which FRET efficiency was measured. Conversion of fluorescence intensity into accurate 2-dimensional EphA2 concentration requires a reversible hypo-osmotic treatment to swell the cells and smooth the wrinkled topology of their plasma membrane (FIG. 4E). […]"}, "[4]": {"biological_target": "T3, EphA2 (Homo sapiens, UniProt P29317, G131Y)", "T3 construct": "expressed in transfected cells; host or cells: HEK293 (HEK293T), transient transfection", "T3 sequence (P29317 24-976 G131Y)": "as the sequence (P29317 24-976) above, with G108Y counted along it", "experiment": "Quantitative FRET of EphA2 oligomerization in transiently transfected HEK293 cells", "format": "cell-based", "source_text": "as §2, §3, §1, §4"}, "[5]": {"test_system": "other Eph receptors", "experiment": "ELISA selectivity: ephrinA5-AP binding to EphA receptors and ephrinB2-AP binding to EphB receptors", "conditions": "peptide at ~100-fold its IC50", "source_text": "FIG. 1A-1C illustrates an example of Potency and selectivity of EphA2-targeting dimeric peptides. (FIG. 1A) ELISAs comparing the ability of the peptides to inhibit binding of ephrin-A5 fused to alkaline phosphatase (ephrinA5-AP) to the immobilized EphA2 extracellular domain fused to the Fc portion of an antibody (EphA2-Fc). The graphs show averages ±SD from triplicate measurements from a representative experiment. IC50 values calculated from the fitted curves in each experiment are shown. Averages of IC50 values obtained from multiple experiments are shown in panel FIG. 1B and Table 3. The 10 nM peptide concentration is outlined in red. (FIG. 1B) Plot of the average IC50 values (listed in Table 3) for different ligands. […] (FIG. 1C) EphrinA5-AP binding to EphA receptors and ephrinB2-AP binding to EphB receptors in the presence of dimeric peptides representing each of the three configurations. Values are normalized to ephrin binding without peptide. The graphs show averages and SDs from triplicate measurements (with each measurement shown as a dot).\nAn important feature of the original YSA peptide and its monomeric derivatives is that they specifically bind to EphA2, whereas the ephrinA ligands promiscuously binds to all EphA receptors (9, 31, 37, 53). […]"}, "[6]": {"conditions": "saturating peptide, HEK293 cells"}}, "note": "Like-named read-outs stand apart in the source and are kept apart here.", "data": [{"smiles": "CC(C)C[C@H](NC(=O)[C@H](Cc1c[nH]c2ccccc12)NC(=O)[C@H](C)NC(=O)CNC(=O)[C@@H](N)CSSC[C@H](N)C(=O)NCC(=O)N[C@@H](C)C(=O)N[C@@H](Cc1c[nH]c2ccccc12)C(=O)N[C@@H](CC(C)C)C(=O)N[C@@H](C)C(=O)N[C@@H](Cc1ccc(O)cc1)C(=O)N1CCC[C@H]1C(=O)N[C@@H](CC(=O)O)C(=O)N[C@@H](CO)C(=O)N[C@H](C(=O)N1CCC[C@H]1C(=O)N[C@@H](Cc1ccc(O)cc1)C(=O)N[C@@H](CCCNC(=N)N)C(=O)N1CCC[C@H]1C(=O)N[C@@H](CCCCN)C(=O)O)C(C)C)C(=O)N[C@@H](C)C(=O)N[C@@H](Cc1ccc(O)cc1)C(=O)N1CCC[C@H]1C(=O)N[C@@H](CC(=O)O)C(=O)N[C@@H](CO)C(=O)N[C@H](C(=O)N1CCC[C@H]1C(=O)N[C@@H](Cc1ccc(O)cc1)C(=O)N[C@@H](CCCNC(=N)N)C(=O)N1CCC[C@H]1C(=O)N[C@@H](CCCCN)C(=O)O)C(C)C", "note": "[compound 5, CGA-WLA-YRPK dimer (N-ter)]", "values": [{"measurement": "best-fit FRET oligomerization model, EphA2 WT", "setting": "[1]; [6]", "value": "higher order oligomer model"}, {"measurement": "EphA2 patches on the plasma membrane, EphA2 WT", "setting": "[1]; swollen HEK293 cells", "value": "formation of fluorescent patches"}, {"measurement": "Kd", "setting": "[2]", "value": "380 ± 80", "unit": "nM"}, {"measurement": "N (binding stoichiometry by ITC)", "setting": "[2]; Table 3", "value": "N = 2.2 ± 0.2"}, {"measurement": "Kd", "setting": "[2]; Table 3, soluble EphA2 LBD", "value": "21 ± 3", "unit": "nM"}, {"measurement": "-TΔS", "setting": "[2]; Table 6", "value": "21.93 ± 0.31", "unit": "kcal/mol"}, {"measurement": "N", "setting": "[2]; Table 6, binding stoichiometry", "value": "2.2 ± 0.2"}, {"measurement": "ΔG", "setting": "[2]; Table 6, change in Gibbs energy", "value": "-10.41 ± 0.10", "unit": "kcal/mol"}, {"measurement": "ΔH", "setting": "[2]; Table 6, change in enthalpy", "value": "-32.34 ± 0.21", "unit": "kcal/mol"}, {"measurement": "EphA2 patches on the plasma membrane, EphA2 L223R/L254R/V255R mutant", "setting": "[3]", "value": "causes patches"}, {"measurement": "best-fit FRET oligomerization model, EphA2 G131Y mutant", "setting": "[4]; [6]", "value": "dimer model"}, {"measurement": "EphA2 patches on the plasma membrane, EphA2 G131Y mutant", "setting": "[4]; swollen HEK293 cells", "value": "not"}, {"measurement": "selectivity for EphA2 / binding to other Eph receptors", "setting": "[5]", "value": "do not bind to other Eph receptors"}]}]}
